Reference: ChEMBL document CHEMBL5154747, “Discovery of new carbonic anhydrase IX inhibitors as anticancer agents by toning the hydrophobic and hydrophilic rims of the active site to encounter the dual-tail approach” (Eur J Med Chem, 2022)

Key:
Assay type in all cases: functional
Conditions in all cases: read-out: GI
[1] = system: SF-268; assay: Anticancer activity against human SF-268 cells assessed as cell growth inhibition at 10 uM incubated for 48 hrs by SRB assay relative to control
[2] = system: A549; assay: Anticancer activity against human A549 cells assessed as cell growth inhibition at 10 uM incubated for 48 hrs by SRB assay relative to control
[3] = system: UACC-62; assay: Anticancer activity against human UACC-62 cells assessed as cell growth inhibition at 10 uM incubated for 48 hrs by SRB assay relative to control
[4] = system: LOX IMVI; assay: Anticancer activity against human LOX IMVI cells assessed as cell growth inhibition at 10 uM incubated for 48 hrs by SRB assay relative to control
[5] = system: CCRF-CEM; assay: Anticancer activity against human CCRF-CEM cells assessed as cell growth inhibition at 10 uM incubated for 48 hrs by SRB assay relative to control
[6] = system: EKVX; assay: Anticancer activity against human EKVX cells assessed as cell growth inhibition at 10 uM incubated for 48 hrs by SRB assay relative to control
[7] = system: A498; assay: Anticancer activity against human A498 cells assessed as cell growth inhibition at 10 uM incubated for 48 hrs by SRB assay relative to control
[8] = system: OVCAR-8; assay: Anticancer activity against human OVCAR-8 cells assessed as cell growth inhibition at 10 uM incubated for 48 hrs by SRB assay relative to control
[9] = system: 786-0; assay: Anticancer activity against human 786-0 cells assessed as cell growth inhibition at 10 uM incubated for 48 hrs by SRB assay relative to control
[10] = system: NCI/ADR-RES; assay: Anticancer activity against human NCI/ADR-RES cells assessed as cell growth inhibition at 10 uM incubated for 48 hrs by SRB assay relative to control
[11] = system: MCF7; assay: Anticancer activity against human MCF7 cells assessed as cell growth inhibition at 10 uM incubated for 48 hrs by SRB assay relative to control
[12] = system: NCI-H322M; assay: Anticancer activity against human NCI-H322M cells assessed as cell growth inhibition at 10 uM incubated for 48 hrs by SRB assay relative to control
[13] = system: DU-145; assay: Anticancer activity against human DU-145 cells assessed as cell growth inhibition at 10 uM incubated for 48 hrs by SRB assay relative to control
[14] = system: SW-620; assay: Anticancer activity against human SW-620 cells assessed as cell growth inhibition at 10 uM incubated for 48 hrs by SRB assay relative to control
[15] = system: UO-31; assay: Anticancer activity against human UO-31 cells assessed as cell growth inhibition at 10 uM incubated for 48 hrs by SRB assay relative to control
[16] = system: NCI-H226; assay: Anticancer activity against human NCI-H226 cells assessed as cell growth inhibition at 10 uM incubated for 48 hrs by SRB assay relative to control
[17] = system: COLO 205; assay: Anticancer activity against human COLO 205 cells assessed as cell growth inhibition at 10 uM incubated for 48 hrs by SRB assay relative to control
[18] = system: HCT-15; assay: Anticancer activity against human HCT-15 cells assessed as cell growth inhibition at 10 uM incubated for 48 hrs by SRB assay relative to control
[19] = system: PC-3; assay: Anticancer activity against human PC-3 cells assessed as cell growth inhibition at 10 uM incubated for 48 hrs by SRB assay relative to control
[20] = system: RPMI-8226; assay: Anticancer activity against human RPMI-8226 cells assessed as cell growth inhibition at 10 uM incubated for 48 hrs by SRB assay relative to control
[21] = system: U-251; assay: Anticancer activity against human U-251 cells assessed as cell growth inhibition at 10 uM incubated for 48 hrs by SRB assay relative to control

SMILES | inhibition of growth at 10 µM [1] [%] | inhibition of growth at 10 µM [2] [%] | inhibition of growth at 10 µM [3] [%] | inhibition of growth at 10 µM [4] [%] | inhibition of growth at 10 µM [5] [%] | inhibition of growth at 10 µM [6] [%] | inhibition of growth at 10 µM [8] [%] | inhibition of growth at 10 µM [9] [%] | inhibition of growth at 10 µM [10] [%] | inhibition of growth at 10 µM [11] [%] | inhibition of growth at 10 µM [12] [%] | inhibition of growth at 10 µM [13] [%] | inhibition of growth at 10 µM [14] [%] | inhibition of growth at 10 µM [15] [%] | inhibition of growth at 10 µM [16] [%] | inhibition of growth at 10 µM [17] [%] | inhibition of growth at 10 µM [18] [%] | inhibition of growth at 10 µM [19] [%] | inhibition of growth at 10 µM [20] [%] | inhibition of growth at 10 µM [21] [%] | further results
NS(=O)(=O)c1ccc(Nc2nc(N/N=C/c3ccc(Cl)cc3)nc(Nc3ccccc3)n2)cc1 | 26 | 37 | 25 | 39 | 80 | 23 | 32 | 59 | < 10 | 61 | < 10 | 27 | < 10 | 17 | 18 | 26 | 23 | 48 | 45 | 45 | inhibition of growth at 10 µM [7]: 23%
NS(=O)(=O)c1ccc(Nc2nc(N/N=C/c3ccccc3)nc(Nc3ccccc3)n2)cc1 | 19 | 28 | 31 | 35 | 52 | 29 | 20 | 33 | < 10 | 46 | 27 | 38 | < 10 | 34 | 22 | 14 | 13 | 31 | 41 | 14 | inhibition of growth at 10 µM [7]: 42%
NS(=O)(=O)c1ccc(Nc2nc(N/N=C/c3cccs3)nc(Nc3ccccc3)n2)cc1 | 16 | 11 | 24 | 32 | 68 | 24 | 29 | 13 | < 10 | 47 | 23 | 40 | 10 | 16 | 29 | 18 | 14 | 23 | 47 | < 10 | inhibition of growth at 10 µM [7]: 43%
NS(=O)(=O)c1ccc(Nc2nc(N/N=C/c3ccc4c(c3)OCO4)nc(Nc3ccccc3)n2)cc1 | 57 | 25 | 21 | 73 | 83 | 26 | 50 | 38 | < 10 | 81 | 38 | 58 | 50 | 23 | 34 | 50 | 17 | 40 | 45 | 44 | inhibition of growth at 10 µM [7]: 48%
NNc1nc(Nc2ccccc2)nc(Nc2ccc(S(N)(=O)=O)cc2)n1 | < 10 | < 10 | < 10 | < 10 | < 10 | < 10 | < 10 | < 10 | < 10 | < 10 | < 10 | < 10 | < 10 | 13 | < 10 | < 10 | < 10 | < 10 | < 10 | < 10 | inhibition of growth at 10 µM [7]: < 10%
CN(C)c1ccc(/C=N/Nc2nc(Nc3ccccc3)nc(Nc3ccc(S(N)(=O)=O)cc3)n2)cc1 | 10 | 26 | < 10 | 31 | 53 | < 10 | 31 | 31 | < 10 | 40 | 15 | 26 | 17 | 15 | 21 | < 10 | 20 | 38 | 52 | 32 | inhibition of growth at 10 µM [7]: 14%
NS(=O)(=O)c1ccc(Nc2nc(N/N=C/c3cccc4ccccc34)nc(Nc3ccccc3)n2)cc1 | 12 | 26 | 18 | 44 | 81 | 20 | 40 | 56 | < 10 | 46 | < 10 | 31 | < 10 | 18 | 19 | 18 | 29 | 44 | 51 | 33 | inhibition of growth at 10 µM [7]: < 10%
NS(=O)(=O)c1ccc(Nc2nc(N/N=C/c3ccc([N+](=O)[O-])cc3)nc(Nc3ccccc3)n2)cc1 | 73 | < 10 | 54 | 120 | 88 | 16 | 66 | 91 | < 10 | 90 | 60 | 56 | 81 | 18 | 40 | 76 | 13 | 49 | 56 | 81 | inhibition of growth at 10 µM [7]: 81%
NS(=O)(=O)c1ccc(Nc2nc(N/N=C/c3c[nH]c4ccccc34)nc(Nc3ccccc3)n2)cc1 | 40 | 21 | 61 | 110 | 87 | 32 | 62 | 58 | < 10 | 81 | 45 | 56 | 50 | 50 | 58 | 59 | 24 | 73 | 105 | 71 | inhibition of growth at 10 µM [7]: 48%
NS(=O)(=O)c1ccc(Nc2nc(N/N=C/c3ccc(F)cc3)nc(Nc3ccccc3)n2)cc1 | 58 | 92 | 39 | 39 | 80 | 37 | 70 | 41 | < 10 | 71 | 41 | 68 | 24 | 33 | 49 | 79 | 20 | 60 | 49 | 88 | –
